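At the GI50, growth is halved. TGI denotes the concentration required for complete inhibition of growth.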
Experiments:
Assay in all cases: inhibition of tumour cell growth, NCI panel, 384-well format
SW-620 colon = system: SW-620 colon
A549 NSCLC = system: A549 NSCLC
SK-OV-3 ovarian = system: SK-OV-3 ovarian
MCF7 breast = system: MCF7 breast
UACC-62 melanoma = system: UACC-62 melanoma
SF-268 CNS = system: SF-268 CNS
UO-31 renal = system: UO-31 renal
HT29 colon = system: HT29 colon
OVCAR-4 ovarian = system: OVCAR-4 ovarian
SNB-19 CNS = system: SNB-19 CNS
HCC-2998 colon = system: HCC-2998 colon
NCI-H226 lung = system: NCI-H226 lung
RXF 393 renal = system: RXF 393 renal
CAKI-1 renal = system: CAKI-1 renal
T-47D breast = system: T-47D breast
NCI-H322M lung = system: NCI-H322M lung
MDA-MB-435 melanoma = system: MDA-MB-435 melanoma
A498 renal = system: A498 renal
MDA-MB-468 breast = system: MDA-MB-468 breast
OVCAR-3 ovarian = system: OVCAR-3 ovarian
SK-MEL-28 melanoma = system: SK-MEL-28 melanoma
SF-539 CNS = system: SF-539 CNS
NCI/ADR-RES ovarian = system: NCI/ADR-RES ovarian
U251 glioblastoma = system: U251 glioblastoma
BT-549 breast = system: BT-549 breast
NCI-H460 NSCLC = system: NCI-H460 NSCLC
HOP-92 NSCLC = system: HOP-92 NSCLC
HOP-62 NSCLC = system: HOP-62 NSCLC
HCT-15 colon = system: HCT-15 colon
COLO 205 colon = system: COLO 205 colon
SK-MEL-5 melanoma = system: SK-MEL-5 melanoma
SR leukemia = system: SR leukemia
OVCAR-8 ovarian = system: OVCAR-8 ovarian
SK-MEL-2 melanoma = system: SK-MEL-2 melanoma
RPMI-8226 leukemia = system: RPMI-8226 leukemia
IGROV1 ovarian = system: IGROV1 ovarian
HCT-116 colon = system: HCT-116 colon
KM12 colon = system: KM12 colon
MDA-MB-231 breast = system: MDA-MB-231 breast
M14 melanoma = system: M14 melanoma
LOX IMVI melanoma = system: LOX IMVI melanoma
PC-3 prostate = system: PC-3 prostate
CCRF-CEM leukemia = system: CCRF-CEM leukemia
NCI-H23 lung = system: NCI-H23 lung
MALME-3M melanoma = system: MALME-3M melanoma
NCI-H522 lung = system: NCI-H522 lung
DU-145 prostate = system: DU-145 prostate
K-562 leukemia = system: K-562 leukemia
OVCAR-5 ovarian = system: OVCAR-5 ovarian
HL-60(TB) leukemia = system: HL-60(TB) leukemia
786-0 renal = system: 786-0 renal
MOLT-4 leukemia = system: MOLT-4 leukemia
UACC-257 melanoma = system: UACC-257 melanoma
ACHN renal = system: ACHN renal
SF-295 CNS = system: SF-295 CNS
SN12C renal = system: SN12C renal
TK-10 renal = system: TK-10 renal
SNB-75 CNS = system: SNB-75 CNS
HS 578T breast = system: HS 578T breast
EKVX NSCLC = system: EKVX NSCLC

## C[C@H](c1ccc(Cl)cc1N)N1C(=O)c2cc(I)ccc2N(CCCN2CCN(C)CC2)C(=O)[C@@H]1c1ccc(Cl)cc1
SW-620 colon
  GI50: 1.78 µM
  TGI: 3.19 µM
A549 NSCLC
  GI50: 1.06 µM
  TGI: 2.26 µM
SK-OV-3 ovarian
  GI50: 1.52 µM
  TGI: 2.85 µM
MCF7 breast
  GI50: 1.06 µM
  TGI: 2.26 µM
UACC-62 melanoma
  GI50: 0.591 µM
  TGI: 1.95 µM
SF-268 CNS
  GI50: 1.77 µM
  TGI: 3.16 µM
UO-31 renal
  GI50: 1.15 µM
  TGI: 2.37 µM
HT29 colon
  GI50: 1.68 µM
  TGI: 3.08 µM
OVCAR-4 ovarian
  GI50: 1.56 µM
  TGI: 2.9 µM
SNB-19 CNS
  GI50: 1.71 µM
  TGI: 3.09 µM
HCC-2998 colon
  GI50: 1.25 µM
  TGI: 2.5 µM
NCI-H226 lung
  GI50: 0.649 µM
  TGI: 1.98 µM
RXF 393 renal
  GI50: 0.848 µM
  TGI: 2.12 µM
CAKI-1 renal
  GI50: 0.482 µM
  TGI: 1.78 µM
T-47D breast
  GI50: 1.46 µM
  TGI: 2.78 µM
NCI-H322M lung
  GI50: 1.77 µM
  TGI: 3.17 µM
MDA-MB-435 melanoma
  GI50: 1.71 µM
  TGI: 3.08 µM
A498 renal
  GI50: 0.779 µM
  TGI: 2.04 µM
MDA-MB-468 breast
  GI50: 1.71 µM
  TGI: 3.09 µM
OVCAR-3 ovarian
  GI50: 1.45 µM
  TGI: 2.78 µM
SK-MEL-28 melanoma
  GI50: 1.59 µM
  TGI: 2.95 µM
SF-539 CNS
  GI50: 1.64 µM
  TGI: 3.01 µM
NCI/ADR-RES ovarian
  GI50: 1.59 µM
  TGI: 2.95 µM
U251 glioblastoma
  GI50: 1.64 µM
  TGI: 3.02 µM
BT-549 breast
  GI50: 1.55 µM
  TGI: 2.9 µM
NCI-H460 NSCLC
  GI50: 0.67 µM
  TGI: 2 µM
HOP-92 NSCLC
  GI50: 1.13 µM
  TGI: 2.34 µM
HOP-62 NSCLC
  GI50: 1.62 µM
  TGI: 2.98 µM
HCT-15 colon
  GI50: 1.68 µM
  TGI: 3.06 µM
COLO 205 colon
  GI50: 1.64 µM
  TGI: 3.02 µM
SK-MEL-5 melanoma
  GI50: 1.11 µM
  TGI: 2.31 µM
SR leukemia
  GI50: 0.144 µM
  TGI: 0.28 µM
OVCAR-8 ovarian
  GI50: 1.73 µM
  TGI: 3.12 µM
SK-MEL-2 melanoma
  GI50: 1.59 µM
  TGI: 2.94 µM
RPMI-8226 leukemia
  GI50: 0.0209 µM
  TGI: 0.191 µM
IGROV1 ovarian
  GI50: 1.21 µM
  TGI: 2.47 µM
HCT-116 colon
  GI50: 0.613 µM
  TGI: 1.95 µM
KM12 colon
  GI50: 1.56 µM
  TGI: 2.92 µM
MDA-MB-231 breast
  GI50: 1.61 µM
  TGI: 2.96 µM
M14 melanoma
  GI50: 1.14 µM
  TGI: 2.36 µM
LOX IMVI melanoma
  GI50: 1.7 µM
  TGI: 3.09 µM
PC-3 prostate
  GI50: 1.66 µM
  TGI: 3.04 µM
CCRF-CEM leukemia
  GI50: 1.41 µM
  TGI: 2.72 µM
NCI-H23 lung
  GI50: 1.57 µM
  TGI: 2.92 µM
MALME-3M melanoma
  GI50: 1.06 µM
  TGI: 2.25 µM
NCI-H522 lung
  GI50: 1.54 µM
  TGI: 2.88 µM
DU-145 prostate
  GI50: 1.76 µM
  TGI: 3.16 µM
K-562 leukemia
  GI50: 1.29 µM
  TGI: 2.58 µM
OVCAR-5 ovarian
  GI50: 1.77 µM
  TGI: 3.16 µM
HL-60(TB) leukemia
  GI50: 0.255 µM
  TGI: 0.641 µM
786-0 renal
  GI50: 1.6 µM
  TGI: 2.96 µM
MOLT-4 leukemia
  GI50: 0.144 µM
  TGI: 0.279 µM
UACC-257 melanoma
  GI50: 1.22 µM
  TGI: 2.47 µM
ACHN renal
  GI50: 0.965 µM
  TGI: 2.16 µM
SF-295 CNS
  GI50: 1.7 µM
  TGI: 3.08 µM
SN12C renal
  GI50: 1.59 µM
  TGI: 2.94 µM
TK-10 renal
  GI50: 1.58 µM
  TGI: 2.92 µM

## COc1cc(N2CCC(N3CCN(C)CC3)CC2)ccc1Nc1ncc(Cl)c(Nc2ccccc2P(C)(C)=O)n1
SW-620 colon
  GI50: 4.95 µM
  TGI: > 100 µM
A549 NSCLC
  GI50: 2.1 µM
  TGI: > 23.4 µM
SK-OV-3 ovarian
  GI50: 2.45 µM
  TGI: 5.89 µM
MCF7 breast
  GI50: 2.07 µM
  TGI: > 100 µM
SNB-75 CNS
  GI50: 2.75 µM
  TGI: 6.73 µM
UACC-62 melanoma
  GI50: 3.5 µM
  TGI: > 100 µM
SF-268 CNS
  GI50: 2.38 µM
  TGI: > 25.7 µM
UO-31 renal
  GI50: 4.2 µM
  TGI: > 62 µM
HS 578T breast
  GI50: 1.86 µM
  TGI: 4.89 µM
HT29 colon
  GI50: 1.11 µM
  TGI: > 100 µM
OVCAR-4 ovarian
  GI50: 2.41 µM
  TGI: 8.64 µM
SNB-19 CNS
  GI50: 5.97 µM
  TGI: > 100 µM
NCI-H226 lung
  GI50: 0.49 µM
  TGI: 2.53 µM
RXF 393 renal
  GI50: 2.09 µM
  TGI: 4.52 µM
CAKI-1 renal
  GI50: 2.38 µM
  TGI: 6.28 µM
T-47D breast
  GI50: > 25.8 µM
  TGI: > 100 µM
NCI-H322M lung
  GI50: 2.08 µM
  TGI: 6.39 µM
MDA-MB-435 melanoma
  GI50: 25.5 µM
  TGI: > 100 µM
A498 renal
  GI50: 2.32 µM
  TGI: 6.1 µM
MDA-MB-468 breast
  GI50: 2.01 µM
  TGI: 6.18 µM
OVCAR-3 ovarian
  GI50: 2.22 µM
  TGI: > 28.5 µM
SK-MEL-28 melanoma
  GI50: > 100 µM
  TGI: > 100 µM
SF-539 CNS
  GI50: 1.97 µM
  TGI: 4.23 µM
NCI/ADR-RES ovarian
  GI50: > 100 µM
  TGI: > 100 µM
EKVX NSCLC
  GI50: 1.46 µM
  TGI: 3.48 µM
U251 glioblastoma
  GI50: 6.2 µM
  TGI: > 100 µM
BT-549 breast
  GI50: 2.28 µM
  TGI: 5.08 µM
NCI-H460 NSCLC
  GI50: 4.35 µM
  TGI: > 100 µM
HOP-92 NSCLC
  GI50: 1.17 µM
  TGI: 3 µM
HOP-62 NSCLC
  GI50: 2.33 µM
  TGI: > 50.2 µM
HCT-15 colon
  GI50: 5.29 µM
  TGI: > 100 µM
COLO 205 colon
  GI50: 1.65 µM
  TGI: 4 µM
SK-MEL-5 melanoma
  GI50: 4.72 µM
  TGI: > 100 µM
SR leukemia
  GI50: 0.0248 µM
  TGI: 0.0545 µM
OVCAR-8 ovarian
  GI50: 6.55 µM
  TGI: > 100 µM
RPMI-8226 leukemia
  GI50: 1.77 µM
  TGI: 5.38 µM
IGROV1 ovarian
  GI50: 1.18 µM
  TGI: 3.7 µM
HCT-116 colon
  GI50: 2.82 µM
  TGI: > 77 µM
KM12 colon
  GI50: 3.74 µM
  TGI: > 100 µM
MDA-MB-231 breast
  GI50: 2.03 µM
  TGI: 6.47 µM
M14 melanoma
  GI50: 3.48 µM
  TGI: > 100 µM
LOX IMVI melanoma
  GI50: 3.07 µM
  TGI: 17.8 µM
PC-3 prostate
  GI50: 5.55 µM
  TGI: > 100 µM
CCRF-CEM leukemia
  GI50: 3.45 µM
  TGI: 9.7 µM
NCI-H23 lung
  GI50: 1.87 µM
  TGI: 5.19 µM
MALME-3M melanoma
  GI50: 3.09 µM
  TGI: > 66.9 µM
NCI-H522 lung
  GI50: 1.16 µM
  TGI: 4.17 µM
DU-145 prostate
  GI50: 2.5 µM
  TGI: 10.5 µM
OVCAR-5 ovarian
  GI50: 2.39 µM
  TGI: > 46.9 µM
HL-60(TB) leukemia
  GI50: 3.35 µM
  TGI: > 35.6 µM
786-0 renal
  GI50: 3.22 µM
  TGI: > 43.8 µM
MOLT-4 leukemia
  GI50: 1.9 µM
  TGI: 4.1 µM
UACC-257 melanoma
  GI50: > 100 µM
  TGI: > 100 µM
ACHN renal
  GI50: 3.21 µM
  TGI: > 43.9 µM
SF-295 CNS
  GI50: 2.92 µM
  TGI: > 29.5 µM
SN12C renal
  GI50: 2.3 µM
  TGI: 11.1 µM
TK-10 renal
  GI50: 3.92 µM
  TGI: > 100 µM

Source: PubChem BioAssay (NCI)
